Key:
Assay in all cases: radiometric filter-binding kinase assay, Kinase HotSpot
Details in all cases: compound 0.5 µM; ATP 10 µM
ACVR1B (human) = ACVR1B (human) (UniProt P36896)
ACVRL1 (human) = ACVRL1 (human) (UniProt P37023)
ALK (human) = ALK (human) (UniProt Q9UM73)
AURKC (human) = AURKC (human) (UniProt Q9UQB9)
CAMK1D (human) = CAMK1D (human) (UniProt Q8IU85)
CDC42BPB (human) = CDC42BPB (human) (UniProt Q9Y5S2)
CSNK1A1 (human) = CSNK1A1 (human) (UniProt P48729)
CSNK1E (human) = CSNK1E (human) (UniProt P49674)
DAPK2 (human) = DAPK2 (human) (UniProt Q9UIK4)
Sequence of DAPK2 (human) (Q9UIK4 whole entry, looked up): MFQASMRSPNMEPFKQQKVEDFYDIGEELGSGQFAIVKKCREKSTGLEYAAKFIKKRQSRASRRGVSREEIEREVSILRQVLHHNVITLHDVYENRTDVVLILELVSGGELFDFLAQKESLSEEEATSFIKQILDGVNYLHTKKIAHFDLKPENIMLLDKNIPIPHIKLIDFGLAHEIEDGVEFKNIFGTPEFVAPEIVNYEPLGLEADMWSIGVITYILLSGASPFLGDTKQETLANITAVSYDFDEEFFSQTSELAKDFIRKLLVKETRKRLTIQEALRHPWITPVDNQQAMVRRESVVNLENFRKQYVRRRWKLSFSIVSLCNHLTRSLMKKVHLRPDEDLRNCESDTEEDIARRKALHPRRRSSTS

EGFR (human) = EGFR (human) (UniProt P00533)
EPHA1 (human) = EPHA1 (human) (UniProt P21709)
FER (human) = FER (human) (UniProt P16591)
FES (human) = FES (human) (UniProt P07332)
FGFR4 (human) = FGFR4 (human) (UniProt P22455)
HIPK4 (human) = HIPK4 (human) (UniProt Q8NE63)
KIT (human) = KIT (human) (UniProt P10721)
LRRK2 (human) = LRRK2 (human) (UniProt Q5S007)
MAP3K10 (human) = MAP3K10 (human) (UniProt Q02779)
MAP3K2 (human) = MAP3K2 (human) (UniProt Q9Y2U5)
MAP3K5 (human) = MAP3K5 (human) (UniProt Q99683)
MATK (human) = MATK (human) (UniProt P42679)
MERTK (human) = MERTK (human) (UniProt Q12866)
MET (human) = MET (human) (UniProt P08581)
NEK11 (human) = NEK11 (human) (UniProt Q8NG66)
Sequence of NEK11 (human) (Q8NG66 whole entry, looked up): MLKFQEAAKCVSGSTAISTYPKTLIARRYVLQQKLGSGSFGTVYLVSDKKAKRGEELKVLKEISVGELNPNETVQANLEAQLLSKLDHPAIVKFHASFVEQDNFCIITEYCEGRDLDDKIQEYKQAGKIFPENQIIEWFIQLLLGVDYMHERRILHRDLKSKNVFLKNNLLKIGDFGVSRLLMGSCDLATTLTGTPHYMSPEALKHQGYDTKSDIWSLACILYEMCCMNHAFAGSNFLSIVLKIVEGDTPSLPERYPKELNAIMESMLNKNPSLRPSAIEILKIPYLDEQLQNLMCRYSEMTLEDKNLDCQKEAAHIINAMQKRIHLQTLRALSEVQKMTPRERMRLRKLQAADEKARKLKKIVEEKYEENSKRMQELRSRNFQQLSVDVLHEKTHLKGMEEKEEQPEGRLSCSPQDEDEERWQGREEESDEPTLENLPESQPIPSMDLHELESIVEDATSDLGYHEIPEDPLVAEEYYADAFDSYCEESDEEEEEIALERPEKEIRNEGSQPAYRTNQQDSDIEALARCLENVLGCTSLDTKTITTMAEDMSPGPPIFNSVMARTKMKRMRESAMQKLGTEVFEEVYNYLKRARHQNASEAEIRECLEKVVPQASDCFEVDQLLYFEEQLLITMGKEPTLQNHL

NLK (human) = NLK (human) (UniProt Q9UBE8)
NTRK2 (human) = NTRK2 (human) (UniProt Q16620)
PAK2 (human) = PAK2 (human) (UniProt Q13177)
PDPK1 (human) = PDPK1 (human) (UniProt O15530)
Sequence of PDPK1 (human) (O15530 whole entry, looked up): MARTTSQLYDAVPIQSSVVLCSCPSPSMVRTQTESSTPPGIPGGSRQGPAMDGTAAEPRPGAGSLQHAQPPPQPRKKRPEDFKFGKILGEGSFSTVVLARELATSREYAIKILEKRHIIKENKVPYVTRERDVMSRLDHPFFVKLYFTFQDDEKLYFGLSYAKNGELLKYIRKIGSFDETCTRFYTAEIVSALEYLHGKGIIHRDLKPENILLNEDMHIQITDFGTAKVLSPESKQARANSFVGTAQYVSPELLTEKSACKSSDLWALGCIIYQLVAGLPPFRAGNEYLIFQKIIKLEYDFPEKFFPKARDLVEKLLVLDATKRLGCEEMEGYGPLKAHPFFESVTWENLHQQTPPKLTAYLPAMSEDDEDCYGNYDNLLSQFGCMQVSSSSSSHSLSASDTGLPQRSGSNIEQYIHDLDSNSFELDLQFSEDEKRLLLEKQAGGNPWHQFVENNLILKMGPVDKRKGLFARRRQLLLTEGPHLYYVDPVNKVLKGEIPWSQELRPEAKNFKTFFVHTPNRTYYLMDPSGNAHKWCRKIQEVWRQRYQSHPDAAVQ

PIM1 (human) = PIM1 (human) (UniProt P11309)
Sequence of PIM1 (human) (P11309 whole entry, looked up): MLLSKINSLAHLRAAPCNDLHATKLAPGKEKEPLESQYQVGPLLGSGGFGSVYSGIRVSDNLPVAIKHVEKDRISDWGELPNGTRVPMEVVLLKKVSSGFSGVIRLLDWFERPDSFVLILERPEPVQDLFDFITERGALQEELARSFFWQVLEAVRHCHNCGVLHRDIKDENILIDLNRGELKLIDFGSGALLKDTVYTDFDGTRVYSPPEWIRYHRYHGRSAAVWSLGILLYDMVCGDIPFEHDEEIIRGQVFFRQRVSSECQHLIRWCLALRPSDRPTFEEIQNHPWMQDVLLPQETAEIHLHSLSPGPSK

PLK1 (human) = PLK1 (human) (UniProt P53350)
RAF1 (human) = RAF1 (human) (UniProt P04049)
RET (human) = RET (human) (UniProt P07949)
ROCK2 (human) = ROCK2 (human) (UniProt O75116)
ROS1 (human) = ROS1 (human) (UniProt P08922)
Sequence of ROS1 (human) (P08922 whole entry, looked up): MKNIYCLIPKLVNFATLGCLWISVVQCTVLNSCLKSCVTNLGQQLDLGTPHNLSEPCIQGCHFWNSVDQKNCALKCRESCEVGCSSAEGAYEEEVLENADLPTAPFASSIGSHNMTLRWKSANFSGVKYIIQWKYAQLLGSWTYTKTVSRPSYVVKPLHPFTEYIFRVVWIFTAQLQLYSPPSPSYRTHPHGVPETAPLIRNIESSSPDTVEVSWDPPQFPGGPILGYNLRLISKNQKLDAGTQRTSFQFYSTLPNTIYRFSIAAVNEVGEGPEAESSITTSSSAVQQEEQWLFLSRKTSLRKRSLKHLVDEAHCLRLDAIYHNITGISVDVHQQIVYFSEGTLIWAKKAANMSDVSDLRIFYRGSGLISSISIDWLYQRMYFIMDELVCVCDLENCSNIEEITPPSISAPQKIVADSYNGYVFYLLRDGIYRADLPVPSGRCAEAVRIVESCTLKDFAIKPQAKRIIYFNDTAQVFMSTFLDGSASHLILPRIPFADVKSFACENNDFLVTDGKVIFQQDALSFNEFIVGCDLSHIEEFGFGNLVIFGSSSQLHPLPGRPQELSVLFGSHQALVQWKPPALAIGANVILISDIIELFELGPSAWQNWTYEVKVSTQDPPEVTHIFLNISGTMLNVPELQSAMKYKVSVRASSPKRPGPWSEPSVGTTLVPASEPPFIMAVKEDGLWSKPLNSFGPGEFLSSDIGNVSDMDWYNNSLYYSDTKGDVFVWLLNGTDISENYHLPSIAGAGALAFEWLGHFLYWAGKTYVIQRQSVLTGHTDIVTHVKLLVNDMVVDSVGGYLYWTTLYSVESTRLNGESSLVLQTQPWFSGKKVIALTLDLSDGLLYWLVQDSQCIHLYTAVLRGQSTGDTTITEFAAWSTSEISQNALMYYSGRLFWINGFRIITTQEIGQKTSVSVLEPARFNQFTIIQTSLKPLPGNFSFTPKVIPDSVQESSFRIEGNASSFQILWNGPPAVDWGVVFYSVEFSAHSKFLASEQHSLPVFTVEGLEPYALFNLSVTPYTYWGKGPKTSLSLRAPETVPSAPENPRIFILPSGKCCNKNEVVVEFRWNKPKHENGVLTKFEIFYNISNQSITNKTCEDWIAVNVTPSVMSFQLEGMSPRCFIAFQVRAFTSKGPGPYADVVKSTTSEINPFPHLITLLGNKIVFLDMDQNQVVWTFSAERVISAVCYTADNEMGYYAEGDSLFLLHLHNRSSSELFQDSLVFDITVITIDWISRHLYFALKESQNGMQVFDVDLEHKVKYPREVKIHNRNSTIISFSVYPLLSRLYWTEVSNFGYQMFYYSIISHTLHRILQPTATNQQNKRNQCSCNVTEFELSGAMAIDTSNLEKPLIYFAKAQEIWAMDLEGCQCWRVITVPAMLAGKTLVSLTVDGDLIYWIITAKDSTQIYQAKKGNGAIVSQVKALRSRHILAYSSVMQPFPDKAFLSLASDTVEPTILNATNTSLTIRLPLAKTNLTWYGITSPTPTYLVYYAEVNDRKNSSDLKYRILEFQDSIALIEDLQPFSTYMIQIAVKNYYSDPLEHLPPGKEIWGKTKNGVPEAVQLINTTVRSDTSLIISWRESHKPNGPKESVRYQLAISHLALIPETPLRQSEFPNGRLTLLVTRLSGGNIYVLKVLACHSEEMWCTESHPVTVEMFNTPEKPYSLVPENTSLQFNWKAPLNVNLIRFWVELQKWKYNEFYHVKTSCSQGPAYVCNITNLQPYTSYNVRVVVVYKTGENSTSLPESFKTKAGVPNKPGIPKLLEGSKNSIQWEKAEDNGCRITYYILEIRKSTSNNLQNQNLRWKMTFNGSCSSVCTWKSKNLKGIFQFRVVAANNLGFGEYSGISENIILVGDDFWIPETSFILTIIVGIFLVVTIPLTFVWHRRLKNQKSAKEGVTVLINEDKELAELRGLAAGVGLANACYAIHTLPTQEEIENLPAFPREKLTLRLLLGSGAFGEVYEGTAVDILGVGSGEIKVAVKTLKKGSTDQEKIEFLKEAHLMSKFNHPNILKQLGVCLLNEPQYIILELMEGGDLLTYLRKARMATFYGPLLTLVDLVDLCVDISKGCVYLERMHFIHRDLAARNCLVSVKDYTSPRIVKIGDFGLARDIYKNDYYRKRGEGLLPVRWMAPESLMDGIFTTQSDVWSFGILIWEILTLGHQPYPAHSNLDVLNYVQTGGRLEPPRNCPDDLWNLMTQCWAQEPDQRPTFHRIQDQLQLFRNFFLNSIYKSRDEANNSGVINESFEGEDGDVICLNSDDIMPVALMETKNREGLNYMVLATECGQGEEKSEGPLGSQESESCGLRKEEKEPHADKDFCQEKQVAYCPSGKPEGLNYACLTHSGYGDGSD

RPS6KB2 (human) = RPS6KB2 (human) (UniProt Q9UBS0)
SLK (human) = SLK (human) (UniProt Q9H2G2)
SRPK2 (human) = SRPK2 (human) (UniProt P78362)
TGFBR2 (human) = TGFBR2 (human) (UniProt P37173)
TNK2 (human) = TNK2 (human) (UniProt Q07912)
[1] = biological target: TYK2 JH1 catalytic (human) (UniProt P29597)
WNK2 (human) = WNK2 (human) (UniProt Q9Y3S1)
ZAP70 (human) = ZAP70 (human) (UniProt P43403)

Sequence of CSNK1A1 (human) (P48729 whole entry, looked up): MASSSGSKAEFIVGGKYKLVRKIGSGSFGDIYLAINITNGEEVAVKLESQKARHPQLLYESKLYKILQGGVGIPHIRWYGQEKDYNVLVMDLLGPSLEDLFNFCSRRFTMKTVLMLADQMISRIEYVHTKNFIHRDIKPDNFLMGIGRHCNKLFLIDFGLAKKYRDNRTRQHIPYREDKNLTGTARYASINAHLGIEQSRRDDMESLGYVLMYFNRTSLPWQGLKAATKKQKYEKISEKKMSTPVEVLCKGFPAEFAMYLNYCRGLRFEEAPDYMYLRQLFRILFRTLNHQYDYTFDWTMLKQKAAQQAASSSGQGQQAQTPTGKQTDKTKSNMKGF
Sequence of CAMK1D (human) (Q8IU85 whole entry, looked up): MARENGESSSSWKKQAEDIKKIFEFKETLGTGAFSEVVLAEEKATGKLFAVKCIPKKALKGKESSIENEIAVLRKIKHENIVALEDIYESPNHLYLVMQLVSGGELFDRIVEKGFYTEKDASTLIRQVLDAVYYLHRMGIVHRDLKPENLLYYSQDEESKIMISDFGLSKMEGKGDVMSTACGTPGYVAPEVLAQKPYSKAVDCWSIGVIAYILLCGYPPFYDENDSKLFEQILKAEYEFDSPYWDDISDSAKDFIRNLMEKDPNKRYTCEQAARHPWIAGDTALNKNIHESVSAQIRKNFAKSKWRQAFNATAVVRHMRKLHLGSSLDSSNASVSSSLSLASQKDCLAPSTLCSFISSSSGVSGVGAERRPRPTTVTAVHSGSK

CN(C)C[C@H]1CCn2c(c(C3=C(c4cn(C)c5ccccc45)C(=O)NC3=O)c3ccccc32)C1
residual activity (ACVR1B (human)): 98.2%
residual activity (ACVRL1 (human)): 98.5%
residual activity (ALK (human)): 99.6%
residual activity (AURKC (human)): 93.1%
residual activity (CAMK1D (human)): 101%
residual activity (CDC42BPB (human)): 103%
residual activity (CSNK1A1 (human)): 98.5%
residual activity (CSNK1E (human)): 99.7%
residual activity (DAPK2 (human)): 90.4%
residual activity (EGFR (human)): 95.8%
residual activity (EPHA1 (human)): 100%
residual activity (FER (human)): 69.2%
residual activity (FES (human)): 102%
residual activity (FGFR4 (human)): 89.6%
residual activity (HIPK4 (human)): 95.7%
residual activity (KIT (human)): 92.7%
residual activity (LRRK2 (human)): 93.1%
residual activity (MAP3K10 (human)): 102%
residual activity (MAP3K2 (human)): 94.6%
residual activity (MAP3K5 (human)): 107%
residual activity (MATK (human)): 95%
residual activity (MERTK (human)): 95.4%
residual activity (MET (human)): 96.2%
residual activity (NEK11 (human)): 74.1%
residual activity (NLK (human)): 101%
residual activity (NTRK2 (human)): 102%
residual activity (PAK2 (human)): 85.1%
residual activity (PDPK1 (human)): 97%
residual activity (PIM1 (human)): 63.2%
residual activity (PLK1 (human)): 102%
residual activity (RAF1 (human)): 96.6%
residual activity (RET (human)): 99.7%
residual activity (ROCK2 (human)): 98.9%
residual activity (ROS1 (human)): 87.1%
residual activity (RPS6KB2 (human)): 67.6%
residual activity (SLK (human)): 83.1%
residual activity (SRPK2 (human)): 91.5%
residual activity (TGFBR2 (human)): 98.5%
residual activity (TNK2 (human)): 96.3%
residual activity [1]: 104%
residual activity (WNK2 (human)): 103%
residual activity (ZAP70 (human)): 105%

O=C(O)/C=C/c1cc(Br)c(Br)c(Br)c1Br
residual activity (ACVR1B (human)): 103%
residual activity (ACVRL1 (human)): 103%
residual activity (ALK (human)): 98.6%
residual activity (AURKC (human)): 90.3%
residual activity (CAMK1D (human)): 98.1%
residual activity (CDC42BPB (human)): 97.4%
residual activity (CSNK1A1 (human)): 79.3%
residual activity (CSNK1E (human)): 83.6%
residual activity (DAPK2 (human)): 104%
residual activity (EGFR (human)): 98.4%
residual activity (EPHA1 (human)): 94.6%
residual activity (FER (human)): 96.6%
residual activity (FES (human)): 88.8%
residual activity (FGFR4 (human)): 88.3%
residual activity (HIPK4 (human)): 102%
residual activity (KIT (human)): 89.2%
residual activity (LRRK2 (human)): 87.6%
residual activity (MAP3K10 (human)): 92.3%
residual activity (MAP3K2 (human)): 102%
residual activity (MAP3K5 (human)): 94%
residual activity (MATK (human)): 87.2%
residual activity (MERTK (human)): 92.4%
residual activity (MET (human)): 84.5%
residual activity (NEK11 (human)): 101%
residual activity (NLK (human)): 99.1%
residual activity (NTRK2 (human)): 98.2%
residual activity (PAK2 (human)): 83.2%
residual activity (PDPK1 (human)): 96.2%
residual activity (PIM1 (human)): 16.2%
residual activity (PLK1 (human)): 68.7%
residual activity (RAF1 (human)): 91.3%
residual activity (RET (human)): 76.4%
residual activity (ROCK2 (human)): 94.2%
residual activity (ROS1 (human)): 94%
residual activity (RPS6KB2 (human)): 93.8%
residual activity (SLK (human)): 96%
residual activity (SRPK2 (human)): 62%
residual activity (TGFBR2 (human)): 85.7%
residual activity (TNK2 (human)): 110%
residual activity [1]: 110%
residual activity (WNK2 (human)): 93%
residual activity (ZAP70 (human)): 98.5%

O=C1NC(=O)C(c2cn(CCCO)c3ncccc23)=C1c1cnccn1
residual activity (ACVR1B (human)): 100%
residual activity (ACVRL1 (human)): 105%
residual activity (ALK (human)): 105%
residual activity (AURKC (human)): 113%
residual activity (CAMK1D (human)): 95.1%
residual activity (CSNK1A1 (human)): 67%
residual activity (CSNK1E (human)): 93.9%
residual activity (DAPK2 (human)): 88.4%
residual activity (EGFR (human)): 95.9%
residual activity (EPHA1 (human)): 73.9%
residual activity (FER (human)): 99.2%
residual activity (FES (human)): 121%
residual activity (FGFR4 (human)): 91.5%
residual activity (HIPK4 (human)): 104%
residual activity (KIT (human)): 93%
residual activity (LRRK2 (human)): 90%
residual activity (MAP3K10 (human)): 91.3%
residual activity (MAP3K2 (human)): 96.9%
residual activity (MAP3K5 (human)): 88.9%
residual activity (MATK (human)): 95.5%
residual activity (MERTK (human)): 78.7%
residual activity (MET (human)): 121%
residual activity (NEK11 (human)): 108%
residual activity (NLK (human)): 91.2%
residual activity (NTRK2 (human)): 99.7%
residual activity (PAK2 (human)): 105%
residual activity (PDPK1 (human)): 92.2%
residual activity (PIM1 (human)): 43.9%
residual activity (PLK1 (human)): 103%
residual activity (RAF1 (human)): 100%
residual activity (RET (human)): 54.5%
residual activity (ROCK2 (human)): 96%
residual activity (ROS1 (human)): 106%
residual activity (RPS6KB2 (human)): 94.7%
residual activity (SLK (human)): 106%
residual activity (SRPK2 (human)): 97.9%
residual activity (TGFBR2 (human)): 122%
residual activity (TNK2 (human)): 90.7%
residual activity [1]: 96.9%
residual activity (WNK2 (human)): 104%
residual activity (ZAP70 (human)): 87.8%

CCN(CC)CCCCN1c2ccccc2Oc2ccc(Cl)cc21
residual activity (ACVR1B (human)): 105%
residual activity (ACVRL1 (human)): 102%
residual activity (ALK (human)): 106%
residual activity (AURKC (human)): 99.3%
residual activity (CAMK1D (human)): 107%
residual activity (CDC42BPB (human)): 99.7%
residual activity (CSNK1A1 (human)): 96.1%
residual activity (CSNK1E (human)): 112%
residual activity (DAPK2 (human)): 99%
residual activity (EGFR (human)): 99.2%
residual activity (EPHA1 (human)): 90.5%
residual activity (FER (human)): 102%
residual activity (FES (human)): 99.8%
residual activity (FGFR4 (human)): 92.6%
residual activity (HIPK4 (human)): 99.2%
residual activity (KIT (human)): 107%
residual activity (LRRK2 (human)): 115%
residual activity (MAP3K10 (human)): 102%
residual activity (MAP3K2 (human)): 88.2%
residual activity (MAP3K5 (human)): 106%
residual activity (MATK (human)): 99.9%
residual activity (MERTK (human)): 95.5%
residual activity (MET (human)): 105%
residual activity (NEK11 (human)): 92%
residual activity (NLK (human)): 101%
residual activity (NTRK2 (human)): 102%
residual activity (PAK2 (human)): 98.6%
residual activity (PDPK1 (human)): 111%
residual activity (PLK1 (human)): 109%
residual activity (RAF1 (human)): 105%
residual activity (RET (human)): 96.3%
residual activity (ROCK2 (human)): 104%
residual activity (ROS1 (human)): 95.3%
residual activity (RPS6KB2 (human)): 107%
residual activity (SLK (human)): 105%
residual activity (SRPK2 (human)): 109%
residual activity (TGFBR2 (human)): 96%
residual activity (TNK2 (human)): 94.7%
residual activity [1]: 96.7%
residual activity (WNK2 (human)): 119%
residual activity (ZAP70 (human)): 91.1%

Source: the kinase profiling compilation of Christmann-Franck et al. (2016)
